Structures are written as SMILES.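 In this assay, cells in 96-well plates receive the compound at five concentrations for 48 hours. Endpoints are linearly interpolated between the surrounding concentrations. At the GI50, growth is halved. TGI: concentration producing complete growth inhibition.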 Bounds are passed on as bounds.

Common to all, as to experiment: NCI tumour cell line growth inhibition, 48 h
Assay [1] concerns M14 melanoma.
The test system of assay [2] is CCRF-CEM leukemia.
Assay [3] has as its system HCT-15 colon.
Assay [4] relates to HCC-2998 colon.
Assay [5] relates to 786-0 renal.
For assay [6], the system named is NCI-H460 lung.
Assay [7] deals with HS 578T breast.
Assay [8] relates to A498 renal.
Assay [9] concerns SR leukemia.
Assay [10] relates to SF-539 CNS.

As for `OCc1ccc2c(c1)CC1(C2)Cc2cc3c(cc2C1O)CCC3` (stereo not given), the TGI in [1] was 13 µM; in [2], more than 44.9 µM; in [3] it was more than 44.2 µM; in assay [4], more than 45.3 µM; in assay [5], 45.6 µM; in [6] it was 17.1 µM. The TGI is 11.4 µM in assay [7], 27.7 µM in assay [8], more than 21.7 µM in [9] and 14.9 µM in assay [10].

For `C[C@@H]1CC[C@@]2(C)C(C(=O)O)=CCCC2[C@@]1(C)CC(=O)c1ccoc1` (stereo not given in full), the TGI in assay [1], in assay [2], in [3], in assay [5], in assay [6] and in [7] was more than 25 µM each time. For the same compound, the TGI in [8], in [9] and in assay [10] was more than 25 µM throughout.

For the compound `CC(C)NC(=O)OCc1c(COC(=O)NC(C)C)n(C)c2c1ccc1sccc12`, the TGI is 36.7 µM in [1]; more than 100 µM in assay [2]; more than 52.3 µM in [3]; 30.3 µM in assay [4]; 36.8 µM in assay [5]; 27.2 µM in [6]. Besides, the TGI in assay [7] was 34.6 µM; in [8], 52.3 µM; in assay [9], more than 64.6 µM; in [10], 26 µM.

Take `O=C(ON=C1c2ccccc2C(Br)C(Br)c2ccccc21)c1ccccc1` (stereo not given): the TGI in assay [1] turned out to be 32.6 µM; in assay [2], 2.05 µM; in assay [3] it was 42.5 µM; in assay [4], 38.1 µM; in assay [5] it was 23 µM; in [6] it was 18.8 µM. The TGI in assay [7] worked out at 53.6 µM; in assay [8] it was 40.9 µM; in assay [9], 9.12 µM; in assay [10], 13.9 µM.

Turning to `CCOC1C=CC(=O)C(CO)O1` (stereo not given), the TGI is 31.8 µM in assay [1]; 6.07 µM in assay [2]; 25.3 µM in [3]; 34.4 µM in assay [4]; 14.2 µM in assay [5]; 30.9 µM in assay [6]. In addition, the TGI in assay [7] stood at 49 µM; in assay [8], 49.4 µM; in [9] it was 6.63 µM; in [10] it was 23.8 µM.

Regarding `Cn1c2ccccc2n2c3ncccc3c(=O)c(C#N)c12`, the TGI in assay [1] was more than 100 µM; in assay [2], more than 100 µM; in assay [3], more than 53.8 µM; in assay [4], more than 100 µM; in assay [5], more than 81 µM; in assay [6] it was more than 40.7 µM. For the same compound, the TGI is more than 94.1 µM in [7], 34 µM in [8] and more than 100 µM in assay [9].

For `CC(=O)Nc1nc(Cl)cc(NCC2(CO)CCC2)n1`, the TGI in [1], in assay [2], in [3], in [4], in [5] and in assay [6] was more than 100 µM in each case. The TGI in assay [7], in [8] and in [9] was more than 100 µM in each case.

With `CC1(C)CC(=O)C2=C(C1)C(c1ccccc1Cl)C1C(=O)CC(C)(C)CC1(O)O2` (stereo not given), the TGI is more than 100 µM in assay [1]; more than 94.8 µM in assay [2]; more than 100 µM in [3]; more than 100 µM in assay [4]; more than 100 µM in [5]; more than 100 µM in assay [6]. Also, the TGI in assay [7], in assay [8], in [9] and in assay [10] was more than 100 µM in each case.

With `c1ccc(-c2c(-c3ccccc3)[n+](Cc3ccc4ccccc4c3)c(-c3ccc(-c4nc5ccccc5s4)cc3)n2Cc2ccc3ccccc3c2)cc1`, the GI50 in [2] is 0.202 µM; in [3] it was 0.335 µM; in assay [4] it was 0.244 µM; in assay [6] it was 0.231 µM; in assay [7], 0.296 µM; in assay [8], 0.156 µM. The GI50 in assay [9] was 0.14 µM; in assay [10], 0.305 µM. Further, the TGI in [2] is more than 41.5 µM; in [3], 1.13 µM; in [4], 1.01 µM; in assay [6], 1.11 µM; in assay [7] it was 1.41 µM; in assay [8], 0.542 µM. For the same compound, the TGI turned out to be 0.756 µM in [9] and 1.24 µM in [10].

As to `Cc1ccc(-c2cc(-c3ccco3)c(C#N)c(=S)[nH]2)cc1`, the TGI in [1], in [2], in assay [3], in [4], in assay [5] and in [6] was more than 100 µM in each case. The TGI in [7], in assay [8] and in [9] was more than 100 µM in each case.

As for `CC(C)C(Br)CCC1=CCC(Br)(Br)C1` (stereo not given), the TGI in assay [1] is 12.9 µM; in assay [2], more than 100 µM; in assay [4] it was 28.1 µM; in assay [5] it was 29.6 µM; in assay [6], 31.7 µM; in assay [7], 47.4 µM. Moreover, the TGI in [8] is 32.8 µM; in assay [9], more than 100 µM; in assay [10], 33.7 µM.

With `CCCCCCN(CCCCCC)C(=S)N/N=C(\C)c1ccccn1`, the TGI in [1] is 3.29 µM; in assay [2], 4.39 µM; in assay [3], 3.4 µM; in assay [4] it was 9.03 µM; in [5], 2.38 µM; in assay [6] it was 2.97 µM. Also, the TGI in assay [7] was 4.46 µM; in assay [8], 9.29 µM; in assay [9] it was 11.5 µM; in [10] it was 2.77 µM.

As to `[N-]=[N+]=CC(=O)C1CCCN1C(=O)c1ccccc1` (stereo not given), the TGI in [1], in assay [2], in assay [3], in [4], in assay [5] and in [6] was more than 10 µM throughout. Further, the TGI in assay [7], in [8], in [9] and in [10] was more than 10 µM throughout.

Consider `O=C(COc1ccc(OCC(=O)N/N=C/c2ccc(-c3ccc(Cl)cc3Cl)o2)c(Cl)c1)N/N=C/c1ccc(-c2ccc(Cl)cc2Cl)o1`, for which the TGI was more than 100 µM in assay [1]; 34.8 µM in assay [2]; more than 100 µM in assay [3]; more than 100 µM in assay [4]; more than 100 µM in assay [5]; more than 100 µM in assay [6]. Further, the TGI in [7] was more than 100 µM; in [8] it was more than 100 µM; in assay [9], 8.25 µM.

For the compound `O=C(CCc1cc(O)cc(O)c1)NCCc1cc(OCc2ccccc2)cc(OCc2ccccc2)c1`, the TGI in assay [1] came out at 34.8 µM; in assay [2], 50.8 µM; in assay [3], 29.8 µM; in [4] it was 35 µM; in assay [5], 41 µM; in assay [6], 14.4 µM. Also, the TGI in assay [7] stood at 48.7 µM; in assay [8] it was 42.8 µM; in [9] it was 27 µM; in assay [10], 44.6 µM.

Consider `CN(/N=C1\C(=O)Nc2ccccc21)c1ccccc1`, for which the TGI in assay [1], in assay [2], in assay [3], in assay [4], in assay [6] and in [7] was more than 100 µM throughout. The TGI in assay [8], in [9] and in assay [10] was more than 100 µM each time.

With `CC1=CC2C3(C)C(C)(C(C)=CP3(=O)c3c(C(C)C)cc(C(C)C)cc3C(C)C)C1P2(=O)c1c(C(C)C)cc(C(C)C)cc1C(C)C` (stereo not given), the TGI in assay [1] was determined as 4.21 µM; in [2], 7.44 µM; in assay [3] it was 5.87 µM; in assay [4] it was 3.47 µM; in assay [5], 5.47 µM; in assay [6], 3.01 µM. Besides, the TGI in [7] is 6.25 µM; in assay [8], 6.26 µM; in [9] it was 3.92 µM.

Consider `COc1ccc2c(c1)c1c(n2CCN2CCCCC2)-c2cccc(OC)c2CC1`, for which the TGI in [1] was 25 µM; in assay [2], 27.3 µM; in assay [3] it was 70.1 µM; in assay [4] it was 36.4 µM; in [5] it was 55.4 µM; in assay [6], 55.9 µM. The TGI in assay [7] was found to be 42.4 µM; in assay [8], 49.2 µM; in assay [9], 44.7 µM.

For the compound `CCCCI(O)OS(=O)(=O)c1ccc(C)cc1`, the TGI in [1] was more than 100 µM; in assay [2], 76.3 µM; in [3], more than 100 µM; in [4], more than 100 µM; in assay [5], more than 100 µM; in assay [7], more than 100 µM. The TGI was more than 100 µM in assay [8], 73.3 µM in [9] and more than 100 µM in [10].

With `NCCN1CCCCCc2ccccc21`, the TGI in assay [2], in [3], in assay [4], in assay [5], in [6] and in [7] was more than 10 µM throughout. Further, the TGI in assay [8], in assay [9] and in assay [10] was more than 10 µM throughout.

Values taken from PubChem BioAssay (NCI).
